Test results published in patent US20170355705A1 (GlaxoSmithKline Intellectual Property (No.2) Limited, priority 2014, published 2017).
Structures can show the parent of a compound that is named as a salt.

Biological target: T1, SIRT1 (Homo sapiens, UniProt Q96EB6)
T1 sequence (Q96EB6 1-747): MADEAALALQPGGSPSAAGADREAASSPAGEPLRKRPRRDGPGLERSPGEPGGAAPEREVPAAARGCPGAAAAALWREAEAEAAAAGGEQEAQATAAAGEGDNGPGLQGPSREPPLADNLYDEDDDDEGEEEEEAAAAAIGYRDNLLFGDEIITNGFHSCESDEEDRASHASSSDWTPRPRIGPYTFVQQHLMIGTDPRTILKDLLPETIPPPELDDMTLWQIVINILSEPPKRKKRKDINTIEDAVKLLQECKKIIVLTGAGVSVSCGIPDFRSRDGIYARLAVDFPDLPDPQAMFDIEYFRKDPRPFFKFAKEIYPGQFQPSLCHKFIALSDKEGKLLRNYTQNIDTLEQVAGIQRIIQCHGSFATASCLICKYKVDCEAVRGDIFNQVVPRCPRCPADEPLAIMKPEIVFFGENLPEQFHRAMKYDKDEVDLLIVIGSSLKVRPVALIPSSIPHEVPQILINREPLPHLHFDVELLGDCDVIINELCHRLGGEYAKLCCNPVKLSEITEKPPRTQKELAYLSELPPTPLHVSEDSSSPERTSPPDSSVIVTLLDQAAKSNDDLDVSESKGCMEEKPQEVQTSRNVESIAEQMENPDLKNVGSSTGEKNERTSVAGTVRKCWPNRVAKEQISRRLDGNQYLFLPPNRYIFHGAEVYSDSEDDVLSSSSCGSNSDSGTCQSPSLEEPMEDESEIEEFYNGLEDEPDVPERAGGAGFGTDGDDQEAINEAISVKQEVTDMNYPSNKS
Test: Trp mass spectrometry assay of SIRT1 activity (EC1.5, percent maximum activation)
Format: biochemical
Settings: Trp mass spectrometry assay; for TRP Activity (EC1.5): EC1.5 = concentration giving 150% activation of SIRT1
Excerpt: Mass spectrometry based assays were used to identify modulators of SIRT1 activity. […] The peptide was labeled with the fluorophore 5TMR (excitation 540 nm/emission 580 nm) at the C-terminus. The sequence of the peptide substrate was based on p53 with several modifications. In addition, the methionine residue naturally present in the sequence was replaced with the norleucine because the methionine may be susceptible to oxidation during synthesis and purification.
The Trp mass spectrometry assay was conducted as follows. […] The SIRT1 protein was obtained by cloning the SirT1 gene into a T7-promoter containing vector, which was then expressed in BL21(DE3) bacterial cells and purified as described in further detail below. Test compound was added at varying concentrations to this reaction mixture and the resulting reactions were monitored. After the 25 minute incubation with SIRT1, 10 μL of 10% formic acid was added to stop the reaction. The resulting reactions were sealed and frozen for later mass spec analysis. The relative SIRT1 activity was then determined by measuring the amount of O-acetyl-ADP-ribose (OAADPR) formed (or, alternatively, the amount of deacetylated Trp peptide generated) by the NAD-dependent sirtuin deacetylation reaction in the presence of varying concentrations of the test compound versus control reactions lacking the test compound. The degree to which the test agent activated deacetylation by SIRT1 was expressed as EC1.5 (i.e., the concentration of compound required to increase SIRT1 activity by 50% over the control lacking test compound), and Percent Maximum Activation (i.e., the maximum activity relative to control (100%) obtained for the test compound).
This time point was the same as that used for test compounds and, within the linear range, the endpoint represents a change in velocity.
For the above assay, SIRT1 protein was expressed and purified as follows. The SirT1 gene was cloned into a T7-promoter containing vector and transformed into BL21(DE3). The protein was expressed by induction with 1 mM IPTG as an N-terminal His-tag fusion protein at 18° C. overnight and harvested at 30,000×g. Cells were lysed with lysozyme in lysis buffer (50 mM Tris-HCl, 2 mM Tris[2-carboxyethyl]phosphine (TCEP), 10 μM ZnCl2, 200 mM NaCl) and further treated with sonication for 10 min for complete lysis. The protein was purified over a Ni-NTA column (Amersham) and fractions containing pure protein were pooled, concentrated and run over a sizing column (Sephadex S200 26/60 global). The peak containing soluble protein was collected and run on an Ion-exchange column (MonoQ). Gradient elution (200 mM-500 mM NaCl) yielded pure protein. This protein was concentrated and dialyzed against dialysis buffer (20 mM Tris-HCl, 2 mM TCEP) overnight. The protein was aliquoted and frozen at −80° C. until further use.
“NT” means not tested; “ND” means not determinable.

[1] = 0.5 μM peptide substrate, 120 μM βNAD+, 10 nM SIRT1, 25 minutes at 25° C.
[2] = percent maximum activation of SIRT1

TRP MAX RESP (percent maximum fold activation) [1] | TRP Activity (EC1.5) | TRP MAX RESP (percent maximum fold activation) [2] | TRP Activity (EC1.5, concentration of test compound that results in 150% activation of SIRT1) [1] | SMILES
A (Fold activation ≧150%) | – | – | – | O=C(Nc1cnccn1)N1c2nc(N3CCOC(C4CC4)C3)ccc2N2CC[C@H]1C2 (some centres unmarked)
A (Fold activation ≧150%) | – | – | – | CC[C@@H]1CN(c2ccc3c(n2)N(C(=O)Nc2cnccn2)[C@H]2CCN3C2)CCO1
– | C (EC1.5>25 μM) | B (Fold Activation <150%) | – | Cc1cc(-c2ccc3c(n2)N(C(=O)N2CCC(C)C2)[C@H]2CCN3C2)ccn1 (single isomer, unassigned) [Example 193]
B (Fold Activation <150%) | – | – | C (EC1.5>25 μM) | CC1CNCCN1c1ccc2c(n1)N(C(=O)Nc1cnccn1)[C@H]1CCN2C1 (single isomer, unassigned) [Example 228]
B (Fold Activation <150%) | – | – | C (EC1.5>25 μM) | CC1CN(c2ccc3c(n2)N(C(=O)Nc2cnccn2)[C@H]2CCN3C2)CCN1 (single isomer, unassigned) [Example 229]
A (Fold activation ≧150%) | – | – | B (EC1.5 1-25 μM) | O=C(Nc1cnccn1)N1c2nc(N3CCOC(C(F)(F)F)C3)ccc2N2CC[C@H]1C2 (single isomer, unassigned) [Example 230]
A (Fold activation ≧150%) | – | – | A (EC1.5<1 μM) | O=C(Nc1cnccn1)N1c2nc(N3CCOC(C(F)(F)F)C3)ccc2N2CC[C@H]1C2 (single isomer, unassigned) [Example 231]
A (Fold activation ≧150%) | – | – | B (EC1.5 1-25 μM) | Cc1cc(-c2ccc3c(n2)N(C(=O)Nc2cc(CCC(O)CO)ccn2)[C@H]2CCN3C2)ccn1 (single isomer, unassigned) [Example 359]
– | B (EC1.5 1-25 μM) | A (Fold activation ≧150%) | – | Cc1cc(-c2ccc3c(n2)N(C(=O)Nc2cnccn2)C2CCN3C2)ccn1 (stereo in doubt) [Example 149, (4R)-7-(2-methylpyridin-4-yl)-N-(pyrazin-2-yl)-3,4-dihydro-1,4-methanopyrido[2,3-b][1,4]diazepine-5(2H)-carboxamide]
– | A (EC1.5<1 μM) | A (Fold activation ≧150%) | – | O=C(Nc1ccnc(OCC(O)CO)c1)N1c2nc(-c3cccc(C(F)(F)F)c3)ccc2N2CC[C@H]1C2 (stereo in doubt) [Example 170, (4S)-N-(2-((S)-2,3-dihydroxypropoxy)pyridin-4-yl)-7-(3-(trifluoromethyl)phenyl)-3,4-dihydro-1,4-methanopyrido[2,3-b][1,4]diazepine-5(2H)-carboxamide]
A (Fold activation ≧150%) | – | – | B (EC1.5 1-25 μM) | Cc1cc(-c2ccc3c(n2)N(C(=O)Nc2cc(-c4cnc(C)o4)ccn2)C2CCN3C2)ccn1 (stereo in doubt) [Example 335, (4S)-N-(4-(2-methyloxazol-5-yl)pyridin-2-yl)-7-(2-methylpyridin-4-yl)-3,4-dihydro-1,4-methanopyrido[2,3-b][1,4]diazepine-5(2H)-carboxamide, Hydrochloride]
